A short description of series [1]: phenol acidities (pKa) determined spectrophotometrically. The class given is physicochemical. The settings on record: for pKa: phenol, tris(hydroxymethyl)aminomethane buffer, UV; for times more acidic than 1: relative to trimetoquinol 1. The procedure:
Phenol acidities (pKa) were determined spectrophotometrically, as described by Albert et al., "The determination of Ionization Constants" 3rd Ed., Chapman and Hall, London and New York, 1984, by measuring the absorption as a function of pH in tris(hydroxymethyl)aminomethane buffer. Since the catechols tended to oxidize in basic media the buffers were degassed and flushed with argon prior to use.

Series [2] has as its system human platelets (epinephrine-induced serotonin secretion). Put plainly: inhibition of epinephrine-induced serotonin secretion, human platelet-rich plasma. The class given is cell-based. The settings on record: epinephrine 1-10 μM. The procedure:
(§1) The antiaggregatory and antisecretory activity on human platelets was determined by evaluating the in vitro aggregation and [^14 C]serotonin secretion in human platelet preparations. Blood was taken by venipuncture from normal human volunteers who were reported to be free of medication for at least 10 days before blood drawing. Venous blood samples were mixed with acid-citrate dextrose solution (9:1) and centrifuged at 120×g for 15 minutes at room temperature to obtain platelet-rich plasma, PRP, (Huzoor-Akbar et al., Biochem. Pharmacol., 30: 2013-2020, 1981). The PRP was transferred to polypropylene tubes and stored under an atmosphere of 8% CO2. The remaining blood was centrifuged at 1000×g for 10 minutes to obtain platelet-poor plasma. […] Platelet counts varied between 280,000 to 320,000 per cmm or were adjusted to 300,000 per cmm for the aggregation and secretion experiments. All studies were conducted within 2 hours after PRP recovery.
(§2) For aggregation studies, 0.5 ml of PRP was incubated with drug or vehicle (1-5 μl) for 1 minute at 37° C. before the initiation of aggregation with inducers. […] In all experiments, the minimum concentration of inducer (adenosine diphosphate ADP; epinephrine, E; 15S-hydroxy-11α,9α-epoxymethanoprosta-5Z,13E-dienoic acid, U46619; collagen; and arachidonic acid, AA) which caused maximal irreversible aggregation within each PRP preparation was used. Aggregation was monitored for 4 to 6 minutes after the addition of an inducer and data were presented as a percentage inhibition of either slope or maximal light transmittance changes in the presence of varying drug concentrations.
(§3) Secretion data were calculated as the net increase of serotonin released into the supernatant by each inducer and expressed as a percentage of the total radioactivity in platelets Mayo et al., Biochem. Pharmacol., 30: 2237-2241, 1981. The effect of compounds on serotonin release was expressed as the percentage of inhibition of the maximum release by each inducer and plotted against the log molar concentrations of each agent.

Series [3] relates to human platelets (arachidonic acid-induced serotonin secretion). Nature of the series: inhibition of arachidonic acid-induced serotonin secretion, human platelet-rich plasma. The series is classed as cell-based. The settings on record: arachidonic acid 100-300 μM. Here is the method:
as §1, §2, §3

In series [4] the test system is human platelets (epinephrine-induced aggregation). Put plainly: inhibition of the secondary phase of epinephrine-induced platelet aggregation, human platelet-rich plasma. The series is classed as cell-based. The settings on record: epinephrine 1-10 μM. The procedure:
as §1, §2

Series [5] has as its system human platelets (arachidonic acid-induced aggregation). Nature of the series: inhibition of arachidonic acid-induced platelet aggregation, human platelet-rich plasma. The series is classed as cell-based. The settings on record: arachidonic acid 100-300 μM. The procedure:
as §1, §2

The target in series [6] is T1, U46619-induced contractions of rat thoracic aorta (Rattus norvegicus, UniProt P34978).
T1 construct: A 2-3 cm segment of thoracic aorta was excised; tissue Harlan Industries, Inc., Cumberland, IN (animals); host or cells: rat thoracic aorta, spirally cut strips
T1 sequence (P34978 1-341): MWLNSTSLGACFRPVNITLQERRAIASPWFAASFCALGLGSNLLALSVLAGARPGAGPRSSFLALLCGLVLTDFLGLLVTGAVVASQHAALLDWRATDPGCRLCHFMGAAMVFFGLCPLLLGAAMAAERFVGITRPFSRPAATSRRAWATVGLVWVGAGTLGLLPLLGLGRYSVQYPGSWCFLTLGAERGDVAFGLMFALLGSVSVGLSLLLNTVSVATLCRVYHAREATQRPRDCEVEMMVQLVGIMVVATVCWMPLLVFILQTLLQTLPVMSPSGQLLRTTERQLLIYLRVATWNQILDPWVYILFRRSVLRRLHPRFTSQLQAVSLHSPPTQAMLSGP
Put plainly: antagonism of U46619-induced contractions of rat thoracic aorta. The class given is cell-based, rat (male Sprague-Dawley). The settings on record: for Kb: against U46619, read-out: pKB ± SEM (converted); for ΔpD2 of U46619: pD2 (control) - pD2 (treatment); for inhibitory potency on U46619-induced contractions greater than trimetoquinol: relative to trimetoquinol 1. Here is the method: The vasoconstrictive activity of U46619 (a stable thromboxane A2 agonist) on thoracic aorta tissue was determined as follows: Male Sprague-Dawley rats (Harlan Industries, Inc., Cumberland, IN) weighing between 250 and 350 gm were stunned and killed by cervical dislocation. A 2-3 cm segment of thoracic aorta was excised, cleaned of any adhering fat and connecting tissue, spirally cut into 2 matched strips, Constantine, supra. (2.0×0.3 cm). Strips were mounted in 10 ml tissue baths filled with the physiological salt solution in which 3×10^-6 M indomethaecin was present. A tension of 1 gm was applied to the strips. Responses of the tissues to drugs were monitored via Grass FT-03 isometric force transducers connected to a Grass Model 7C polygraph (Grass Instruments Co., Quincy, MA).
Some experiments were done in the absence of indomethacin. Concentration-dependent responses to U46619 were constructed in each preparation as described by Van Rossum, supra.
Effective concentration-50 (EC50) values of the agonists were determined graphically from individual plots of percent response versus log concentration. The potency of each agonist was expressed as a pD2 value where pD2 is equal to the negative logarithm of the experimentally determined EC50 value.
Antagonists were quantitated by calculating their pKB or pA2 values according to the methods of Furchgott, Ann. N.Y. Acad. Sci., 139: 553-570 (1967) and Arunlakshana et al., Br. J. Pharmacol., 14: 48-58 (1959). The pKB value is equivalent to the -log of [I]/(CR-1), where pKB is the negative logarithm of the apparent dissociation constant of the antagonist (KB), [I] is the concentration of the antagonist, and CR is the concentration ratio of the agonist EC50 in the presence of antagonist to the agonist EC50 in the absence of antagonist. To determine significant differences between pD2, pKB or pA2 values, a 5% level of significance was used. Arunlakshana plots were analyzed by computer according to the method of Tallarida et al., Manual of Pharmacological Calculations With Computer Programs, 29-31, (1981).

Series [7] concerns human platelets (collagen-induced serotonin secretion). Put plainly: inhibition of collagen-induced serotonin secretion, human platelet-rich plasma. The series is classed as cell-based. The settings on record: collagen 10-100 μg/ml. Here is the method:
as §1, §2, §3

Setting [8] is: read-out: IC50 serotonin secretion.
[9] abbreviates: read-out: pIC50 serotonin secretion (converted).
The mark [10] stands for this setting: read-out: IC50 platelet aggregation (secondary phase).
[11] abbreviates: read-out: pIC50 platelet aggregation (secondary phase) (converted).
[12] abbreviates: read-out: IC50 platelet aggregation.
Setting [13] is: read-out: pIC50 platelet aggregation (converted).

This note sets out measurements from patent publication US4737504A, “5-fluoro-and 8-fluoro-trimetoquinol compounds and the processes for their preparation” (priority 1986, dated 1988).

Broadly, the pKa is the negative logarithm of the acid dissociation constant. Read a high pKa as a group that holds its proton tightly.

Read-outs that look alike come from different tables or passages of the source.

Compound `COc1cc(CC2NCCc3c2cc(O)c(O)c3F)cc(OC)c1OC` (centres unmarked) [Compound 5-F-TMQ, 5-fluoro-trimetoquinol] came in with a pKa in series [1] of 8.11 ± 0.15. Further, the “times more acidic than 1” value in series [1] is reported as 4 times. Further, the IC50 is 7.4 µM in series [2] (setting [8]); 7.59 µM in series [2] (setting [9]); 55 µM in series [3] (setting [8]); 55 µM in series [3] (setting [9]); 14.8 µM in series [4] (setting [10]); 14.8 µM in series [4] (setting [11]). Besides, the IC50 is 77.5 µM in series [5] (setting [12]), 77.6 µM in series [5] (setting [13]), 13.2 µM in series [7] (setting [8]) and 13.2 µM in series [7] (setting [9]). Further, the Kb was 1.74 µM in series [6] (analog 1 × 10^-4 M), 3.16 µM in series [6] (analog 3 × 10^-5 M) and 1.51 µM in series [6] (analog 3 × 10^-6 M). Besides, the entries for the “pD2 of U46619 in presence of analog” value in series [6] (analog 1 × 10^-4 M), in series [6] (analog 3 × 10^-5 M) and in series [6] (analog 3 × 10^-6 M) were 6.40 ± 0.16, 7.14 ± 0.08 and 7.69 ± 0.08, respectively. Also, the “ΔpD2 of U46619” value was 1.77 ± 0.16 in series [6] (analog 1 × 10^-4 M), 1.02 ± 0.08 in series [6] (analog 3 × 10^-5 M) and 0.48 ± 0.07 in series [6] (analog 3 × 10^-6 M). For the same compound, the “inhibitory potency on U46619-induced contractions greater than trimetoquinol” value in series [6] is reported as “about 2 fold”.

In turn, `COc1cc(CC2NCCc3cc(O)c(O)c(F)c32)cc(OC)c1OC` (centres unmarked) [Compound 8-F-TMQ, 8-fluoro-trimetoquinol] gave a pKa in series [1] of 7.86 ± 0.15. Also, in series [1], the “times more acidic than 1” value was 8 times. The IC50 is 3.5 µM in series [2] (setting [8]); 3.47 µM in series [2] (setting [9]); 21.9 µM in series [3] (setting [8]); 21.9 µM in series [3] (setting [9]); 11 µM in series [4] (setting [10]); 11 µM in series [4] (setting [11]). In addition, the IC50 in series [5] (setting [12]) was 26.2 µM; in series [5] (setting [13]), 26.3 µM; in series [7] (setting [8]) it was 7.6 µM; in series [7] (setting [9]) it was 7.59 µM. Moreover, the results for the Kb in series [6] (analog 1 × 10^-5 M), in series [6] (analog 3 × 10^-5 M) and in series [6] (analog 3 × 10^-6 M) were 0.251 µM, 0.372 µM and 0.38 µM, respectively. In addition, the “pD2 of U46619 in presence of analog” value in series [6] (analog 1 × 10^-5 M) was found to be 6.81 ± 0.12; in series [6] (analog 3 × 10^-5 M), 6.25 ± 0.14; in series [6] (analog 3 × 10^-6 M), 7.20 ± 0.12. The “ΔpD2 of U46619” value in series [6] (analog 1 × 10^-5 M) is recorded as 1.36 ± 0.12; in series [6] (analog 3 × 10^-5 M), 1.92 ± 0.14; in series [6] (analog 3 × 10^-6 M), 0.96 ± 0.19. In series [6], the “inhibitory potency on U46619-induced contractions greater than trimetoquinol” value is listed as roughly 10 fold.
